Consider one substance from patent US20030077740A1, “Presenilin/Crk binding polypeptides (PCBP) and methods of use thereof” (priority 2001, published 2003).

The target of test [1] is T1, full length PS1 (Homo sapiens, UniProt P49768, L392V).
T1 construct: three different clonal 293T cell lines which stably express full length PS1 were transfected with PBP-TAG; expressed in transfected cells; host or cells: clonal 293T cell lines stably expressing PS1
In words: co-immunoprecipitation with full length PS1 in 293T cell lines. The test is classed as binding. To be noted: PS1 expressing the L392V mutation, overexpressing cells. An excerpt: (§1) To examine the interaction of PBP with the fill length PS molecule, three different clonal 293T cell lines which stably express full length PS1 were transfected with PBP-TAG and the ability of PS1 to bind to PBP assayed by immunoprecipitation. Forty-eight hrs after transfection, cells were lysed and proteins immunoprecipitated with 12CA5 (anti-TAG), which recognizes PBP-TAG (anti-PBP-TAG). The immunoprecipitates were subjected to polyacrylamide gel electrophoresis, transferred to Immobilon-P, and reacted with anti-TAG or an anti-serum against PS1.
(§2) For immunoprecipitation of the large hydrophilic loop of PSs or Crk with PBP, cells were lysed in RIPA buffer (100 mM NaCl, 0.5% NP-40, 0.5% DOC, 0.1% SDS, 50 mM Tris, pH 7.5, 1 mM PMSF and 1 μg/ml aprotinin, 1 μg/l leupeptin) on ice for 30 min. For immunoprecipitation of full length PS1 with PBP, RIPA buffer with 1% NP40 but without DOC and SDS was used. Cell lysates were spun for 10 min at 10,000 g. The resulting supernatants were preadsorbed with anti-mouse IgG-agarose (Sigma) for 4 hours at 4° C. After centrifugation, antibody 12CA5 and anti-mouse IgG-agarose were added at 4° C. overnight. […] The bound antibodies were detected by the ECL-plus chemiluminescence system (Amersham, Arlington Heights, Ill.). […]

The target in test [2] is T2, full length PS1 (Homo sapiens, UniProt P49768).
T2 construct: three different clonal 293T cell lines which stably express full length PS1 were transfected with PBP-TAG; expressed in transfected cells; host or cells: clonal 293T cell lines stably expressing PS1
The test is described as above. The test is classed as binding. To be noted: co-immunoprecipitation, 293T lines stably expressing PS1.
Excerpt: as §1, §2

The next test has as its system B103 (APP695) cells. Nature of the test: intracellular APP level and pulse-chase turnover in B103 cells. The test is classed as cell-based, rat.
A further test concerns the target T3, Crk (Homo sapiens, UniProt P46108).
T3 construct: expressed in transfected cells; host or cells: 293T cells
In words: co-immunoprecipitation with Crk in 293T cells. The test is classed as binding. To be noted: anti-PBP-TAG immunoprecipitation, Western blot with antibody against Crk. The method, then:
Since PBP has two consensus sequences for Crk binding, the interaction between PBP and Crk was also examined. The expression plasmid containing PBP cDNA attached to TAG and a plasmid containing Crk cDNA were co-transfected into 293T cells. Forty-eight hrs later, cells were lysed and proteins immunoprecipitated with anti-PBP-TAG and run on SDS acrylamide gels.
For immunoprecipitation of the large hydrophilic loop of PSs or Crk with PBP, cells were lysed in RIPA buffer (100 mM NaCl, 0.5% NP-40, 0.5% DOC, 0.1% SDS, 50 mM Tris, pH 7.5, 1 mM PMSF and 1 μg/ml aprotinin, 1 μg/l leupeptin) on ice for 30 min. For immunoprecipitation of full length PS1 with PBP, RIPA buffer with 1% NP40 but without DOC and SDS was used. Cell lysates were spun for 10 min at 10,000 g. The resulting supernatants were preadsorbed with anti-mouse IgG-agarose (Sigma) for 4 hours at 4° C. After centrifugation, antibody 12CA5 and anti-mouse IgG-agarose were added at 4° C. overnight. After incubation with anti-mouse IgG-agarose, immunoprecipitates were subjected to SDS-polyacrylamide gel electrophoresis and transferred to Immobilon (Millipore, Bedford, Mass.). Western blot analysis with anti-FLAG and 12CA5 monoclonal antibodies or an antibody against Crk was then performed. The bound antibodies were detected by the ECL-plus chemiluminescence system (Amersham, Arlington Heights, Ill.).

The test system of test [3] is Ca2+-activated Cl- current. Nature of the test: Ca2+-activated Cl- current induced by serum in Xenopus oocytes. The test is classed as cell-based. The source says: Xenopus oocytes contain a plasma membrane CF channel which is activated by increases in intracellular Ca^2+, and intracellular Ca^2+ release is activated exclusively by inositol 1,4,5-triphosphate (IP3) Miledi & Parker, J. Physiol., 415:189-210 (1989)). Lysophosphatidic acid (LPA) increases the Ca^2+-activated Cl^− current in oocytes expressing PS1 relative to control oocytes (Leissring et al. (1999)). Since PBP can associate with PS1, the effect of the interaction of PBP with PS1 on the activation of Ca^2+-activated Cl^− current induced by serum (Miledi & Parker (1989)) was examined with Xenopus oocytes. […] Injection of cRNAs into Xenopus oocytes and the electrophysiological recordings were done as described previously (Kimura & Schubert, Proc. Natl. Acad. Sci. (USA), 90:7508-7512 (1993)).

Test [4] relates to large hydrophilic loop of PS2. Nature of the test: co-immunoprecipitation in 293T cells, PS2 loop. To be noted: immunoprecipitation with anti-TAG, 48 hrs after transfection. The test is classed as binding. The method, then:
To confirm the yeast two-hybrid data, the interaction between PBP and PSs was assayed in mammalian cells by immunoprecipitation. Human kidney 293-T cells, and monkey kidney COS-7 cells were cultured in Dulbecco's modified Eagle's medium supplemented with 10% fetal calf serum at 37° C. in a 10% CO2 atmosphere. A nine-amino acid TAG epitope ([…]) (SEQ ID NO:6) was incorporated in-frame at the 3′ end of the PBP cDNA (PBP-TAG), and an eight amino acid FLAG epitope ([…]) (SEQ ID NO:7) was attached in frame at the 5′ end of the large hydrophilic loop of PS1 cDNA and at the 3′ end of full length PS1 cDNA as described previously (Kimura, H., Proc. Natl. Acad. Sci. (USA), 90:2165-2169 (1993)). The resulting fragments were inserted into the pCIS2 expression vector (Genentech, San Francisco, Calif.) for transient or constitutive expression. […]
For immunoprecipitation of the large hydrophilic loop of PSs or Crk with PBP, cells were lysed in RIPA buffer (100 mM NaCl, 0.5% NP-40, 0.5% DOC, 0.1% SDS, 50 mM Tris, pH 7.5, 1 mM PMSF and 1 μg/ml aprotinin, 1 μg/l leupeptin) on ice for 30 min. […] The bound antibodies were detected by the ECL-plus chemiluminescence system (Amersham, Arlington Heights, Ill.).

The next test concerns the target T4, PS1 (Homo sapiens, UniProt P49768, L392V).
T4 construct: the large hydrophilic loop region of PS1 (amino acids 1-81, 429-468, 263-407, respectively) were inserted into the pGBT9 vector; expressed in transfected cells; host or cells: yeast Y190
In words: yeast two-hybrid interaction with PS1. The test is classed as binding. To be noted: yeast two-hybrid system.

T3 sequence (P46108 whole entry, species assumed): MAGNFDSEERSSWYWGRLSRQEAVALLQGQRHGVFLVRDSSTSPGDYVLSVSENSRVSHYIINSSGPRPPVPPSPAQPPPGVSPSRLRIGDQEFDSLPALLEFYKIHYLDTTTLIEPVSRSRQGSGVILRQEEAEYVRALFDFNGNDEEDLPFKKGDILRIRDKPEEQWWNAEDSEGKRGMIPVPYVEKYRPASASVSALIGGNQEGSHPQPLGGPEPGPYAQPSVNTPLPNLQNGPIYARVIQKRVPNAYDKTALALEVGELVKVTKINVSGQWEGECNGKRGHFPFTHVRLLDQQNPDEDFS

In the case of “PBP: novel 2027 amino acid protein, 233 kD, binds presenilins and Crk; expressed from cDNA in cells (KYGVVICSFRGSVPQGLVLEIGETVQILEKCEGWYRGVSTKKPNVKGLFPANYIHLK; listed as Mus musculus)”, the “immune precipitation of PS1 L392V with PBP” value in the test with full length PS1 [1] is reported as “immune precipitate with PBP”. For the same substance, the “interaction with full length PS1” value in the test with full length PS1 [2] is reported as “interacts”. Besides, the “intracellular APP protein level, pulse-chase” value with B103 (APP695) cells (10 min 35S-methionine label, chase 15-60 min) is “rapidly decreased”. In the test on B103 (APP695) cells (APP695/PBP relative to APP695 cells, antibodies 6E10 and 22C11), the “full length APP, intracellular level” value is given as “reduced”. The “co-precipitation with Crk” value with Crk is “co-precipitates”. Further, the “Ca2+-activated Cl- current” value in test [3] (PBP alone expressed) is “slightly decreases”; in test [3] (co-expression with PS1, P<0.05 PS1 vs PS1+PBP) it was “significantly suppresses”. Also, in test [3] (PS1-loop mutation L392V in the presence of PBP), the Cl- current result is on record as “does not suppress”. Moreover, the “interaction with large hydrophilic loop of PS2” value in test [4] is reported as “interacts”. The “productive interaction with FAD mutant of PS1 (L392V)” value in the test with PS1 is recorded as “productive interactions did not occur”.
